According to ChEMBL document CHEMBL4219049, “Peptide therapeutics for the treatment of gastrointestinal disorders” (Bioorg Med Chem, 2018):
Bridge positions count the residues as written; N and C are the ends. Peptide text beside a SMILES is read from it.

Experiments:
Homo sapiens [1] = species: Homo sapiens; assay: Toxicity in patient with irritable bowel syndrome with constipation assessed as induction of diarrhea after 26 weeks (reference value: 2.5%); assay type: organism-based; details: in vivo, 4368 h
Homo sapiens [2] = species: Homo sapiens; assay: Reduction in worst abdominal pain in patient with irritable bowel syndrome with constipation after 26 weeks (reference value: 25%); assay type: functional; set-up: scale not given: the % may be the effect or the level left
Homo sapiens [3] = species: Homo sapiens; assay: Increase in complete spontaneous bowel movements in patient with chronic idiopathic constipation at 3 mg for 12 weeks (reference value: 10.2%); assay type: functional
Homo sapiens [4] = species: Homo sapiens; assay: Toxicity in patient with chronic idiopathic constipation assessed as induction of diarrhea at 6 mg for 12 weeks (reference value: 1.3%); assay type: organism-based; details: in vivo, 2016 h
Homo sapiens [5] = species: Homo sapiens; assay: Toxicity in patient with chronic idiopathic constipation assessed as induction of diarrhea at 3 mg for 12 weeks (reference value: 1.3%); assay type: organism-based; details: in vivo, 2016 h
Homo sapiens [6] = species: Homo sapiens; assay: Increase in complete spontaneous bowel movements in patient with chronic idiopathic constipation at 6 mg for 12 weeks (reference value: 10.2%); assay type: functional
[7] = Elimination half-life in human plasma at 0.8 pmol/kg.min, iv; assay type: ADME, cell-free; details: read-out: beta t1/2

Question: For `C[C@@H]1NC(=O)[C@@H]2CCCN2C(=O)[C@H](CC(N)=O)NC(=O)[C@@H]2CSSC[C@H](N)C(=O)N[C@H]3CSSC[C@H](NC1=O)C(=O)N[C@@H]([C@@H](C)O)C(=O)NCC(=O)N[C@H](C(=O)N[C@@H](Cc1ccc(O)cc1)C(=O)O)CSSC[C@H](NC(=O)[C@H](Cc1ccc(O)cc1)NC(=O)[C@H](CCC(=O)O)NC3=O)C(=O)N2` [LINACLOTIDE] (H-CCEYCCNPACTGCY-OH; disulfide 1-6, 2-10, 5-13), which Activity (Homo sapiens [1]) is on record?
Answer: 19.7%

Question: And the Activity (Homo sapiens [2])?
Answer: 47%

Question: With `CC(C)C[C@H](NC(=O)[C@@H]1CSSC[C@@H]2NC(=O)[C@H](CC(C)C)NC(=O)[C@H](CCC(=O)O)NC(=O)[C@@H](NC(=O)[C@H](CCC(=O)O)NC(=O)[C@H](CC(=O)O)NC(=O)[C@@H](N)CC(N)=O)CSSC[C@H](NC(=O)[C@H](C)NC(=O)[C@H](C(C)C)NC(=O)[C@H](CC(N)=O)NC(=O)[C@H](C(C)C)NC2=O)C(=O)N[C@@H]([C@@H](C)O)C(=O)NCC(=O)N1)C(=O)O` [PLECANATIDE] as the compound, how does the Activity (Homo sapiens [3]) read?
Answer: 21%

Question: What about the Activity (Homo sapiens [4]) of the same compound?
Answer: 5.7%

Question: And the Activity (Homo sapiens [5])?
Answer: 5.9%

Question: And the Activity (Homo sapiens [6])?
Answer: 19.5%

Question: With `CC[C@H](C)[C@H](NC(=O)[C@H](Cc1ccccc1)NC(=O)[C@H](CC(=O)O)NC(=O)[C@H](CCCN=C(N)N)NC(=O)[C@H](C)NC(=O)[C@H](C)NC(=O)[C@H](CC(C)C)NC(=O)[C@H](CC(N)=O)NC(=O)[C@H](CC(=O)O)NC(=O)[C@H](CC(C)C)NC(=O)[C@@H](NC(=O)[C@@H](NC(=O)[C@H](CC(N)=O)NC(=O)[C@H](CCSC)NC(=O)[C@H](CCC(=O)O)NC(=O)[C@H](CC(=O)O)NC(=O)[C@H](CO)NC(=O)[C@H](Cc1ccccc1)NC(=O)[C@H](CO)NC(=O)CNC(=O)[C@H](CC(=O)O)NC(=O)[C@H](C)NC(=O)[C@@H](N)Cc1cnc[nH]1)[C@@H](C)O)[C@@H](C)CC)C(=O)N[C@@H](CC(N)=O)C(=O)N[C@@H](Cc1c[nH]c2ccccc12)C(=O)N[C@@H](CC(C)C)C(=O)N[C@H](C(=O)N[C@@H](CCC(N)=O)C(=O)N[C@H](C(=O)N[C@@H](CCCCN)C(=O)N[C@H](C(=O)N[C@H](C(=O)N[C@@H](CC(=O)O)C(=O)O)[C@@H](C)O)[C@@H](C)CC)[C@@H](C)O)[C@@H](C)CC` as the compound, how does the half-life [7] read?
Answer: 7.2 min
